Measurements published in patent US20090281174A1, “SENESCENCE INHIBITOR” (KAO CORPORATION, priority 2006, published 2009).

Test system: SAM-P1 male mice (mice of senescence-accelerated model)
Assay: Maximum force of soleus muscle under electrical stimulation in senescence-accelerated mice
Type: in vivo, mouse
Conditions: after breeding for 9 weeks
Method: Thereafter, these mice were divided into the following groups (eight mice in each group): […] The mice of each group were subjected to a physical exercise at 10 m/min for 3 minutes in a running-water pool five times a day and four days a week. After breeding for nine weeks, a soleus muscle was removed from a mouse of each group through dissection and fixed to a transducer (FORT100, product of World Precision Instruments, Inc.) in Krebs solution of 37° C. (aeration: 95%-oxygen, 5%-carbon dioxide). Subsequently, under electrical stimulation (0.5 msec, 140 Hz), the maximum muscle force of the muscle sample was determined.

Structure (SMILES): CC(C)C[C@H](N)C(=O)O [leucine, Leucine]
- Maximum soleus muscle force compared with SAM-P1 control group (Dunnet test): No significant difference
- Maximum muscle force (soleus muscle, electrical stimulation 0.5 msec 140 Hz, diet 0.35% of each ingredient): 11.1 ± 0.7 g
